# Laboratory results: patent US20080161232A1, “C5a Receptor Antagonist” (JERINI AG, priority 2005, published 2008)
# Non-standard residues stand in square brackets, D forms with d. Residues, ends and D or L forms follow the SMILES beside them. ξ: configuration not given here. Phe(3-NO2) = N[C@@H](Cc1cccc([N+](=O)[O-])c1)C(=O)O; Phe(3,4,5-F3) = N[C@@H](Cc1cc(F)c(F)c(F)c1)C(=O)O; Phe(3,4-Cl2) = N[C@@H](Cc1ccc(Cl)c(Cl)c1)C(=O)O; Phe(2,4-Cl2) = N[C@@H](Cc1ccc(Cl)cc1Cl)C(=O)O; Phe(2-CF3) = N[C@@H](Cc1ccccc1C(F)(F)F)C(=O)O; Phe(3,4-F2) = N[C@@H](Cc1ccc(F)c(F)c1)C(=O)O; ξTrp(5-Me) = Cc1ccc2[nH]cc(CC(N)C(=O)O)c2c1; Phe(3-Cl) = N[C@@H](Cc1cccc(Cl)c1)C(=O)O; Phe(3-OMe) = COc1cccc(C[C@H](N)C(=O)O)c1; Phe(2-Cl) = N[C@@H](Cc1ccccc1Cl)C(=O)O; Phe(3-F) = N[C@@H](Cc1cccc(F)c1)C(=O)O; Phe(4-F) = N[C@@H](Cc1ccc(F)cc1)C(=O)O; 2Nal = N[C@@H](Cc1ccc2ccccc2c1)C(=O)O; Phe(2-F) = N[C@@H](Cc1ccccc1F)C(=O)O; Bta = N[C@@H](Cc1csc2ccccc12)C(=O)O; d(hLeu) = CC(C)CC[C@@H](N)C(=O)O; Cha = N[C@@H](CC1CCCCC1)C(=O)O; Orn = NCCC[C@H](N)C(=O)O
# Biological target: T1, human C5aR(CD88) (Homo sapiens, UniProt P21730)
# T1 construct: expressed in transfected cells; host or cells: rat basophilic leukemia cells (RBL)
# T1 sequence (P21730 1-350): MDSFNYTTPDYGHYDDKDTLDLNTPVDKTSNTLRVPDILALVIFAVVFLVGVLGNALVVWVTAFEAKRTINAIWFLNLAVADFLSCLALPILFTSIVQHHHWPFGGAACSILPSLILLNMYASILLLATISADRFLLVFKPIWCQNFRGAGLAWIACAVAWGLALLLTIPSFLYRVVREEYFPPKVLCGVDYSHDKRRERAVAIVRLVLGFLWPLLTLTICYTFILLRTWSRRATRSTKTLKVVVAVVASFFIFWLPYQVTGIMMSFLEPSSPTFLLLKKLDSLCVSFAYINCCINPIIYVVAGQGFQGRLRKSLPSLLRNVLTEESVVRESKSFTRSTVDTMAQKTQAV
# Experiment: Determination of the IC50 value in an enzyme release assay (functional assay, antagonistic activity)
# Assay type: cell-based
# Settings: activity (group)
row,Compound,IC50
1,"CC(=O)N[C@@H](Cc1ccccc1)C(=O)N[C@@H](CCCN)C(=O)N1CCC[C@H]1C(=O)N[C@H](CCC(C)C)C(=O)N[C@@H](Cc1cccc(Cl)c1)C(=O)N[C@@H](Cc1ccccc1)C(N)=O [Compound 291, Ac-Phe-Orn-Pro-hle-Mcf-Phe-NH2] (Ac-F[Orn]P[d(hLeu)][Phe(3-Cl)]F-NH2)",0.05 to 0.2 µM
2,"CC(=O)N[C@@H](Cc1ccccc1)C(=O)N[C@@H](CCCN)C(=O)N1CCC[C@H]1C(=O)N[C@H](CCC(C)C)C(=O)N[C@@H](Cc1ccc(F)cc1)C(=O)N[C@@H](Cc1ccccc1)C(N)=O [Compound 302, Ac-Phe-Orn-Pro-hle-Pff-Phe-NH2] (Ac-F[Orn]P[d(hLeu)][Phe(4-F)]F-NH2)",0.05 to 0.2 µM

# Same assay, conditions: antagonistic activity; IC50 group in enzyme release assay, RBL cells expressing human C5aR(CD88); read-out: activity (group)
row,IC50,Compound
1,0.05 to 0.2 µM,"CC(=O)N[C@@H](Cc1ccccc1)C(=O)N[C@@H](CCCN)C(=O)N1CCC[C@H]1C(=O)N[C@H](CCC(C)C)C(=O)N[C@@H](Cc1csc2ccccc12)C(=O)N[C@@H](Cc1ccc(O)cc1)C(N)=O [Compound 282, Ac-Phe-Orn-Pro-hle-Bta-Tyr-NH2] (Ac-F[Orn]P[d(hLeu)][Bta]Y-NH2)"
2,0.05 to 0.2 µM,"CC(=O)N[C@@H](Cc1ccccc1)C(=O)N[C@@H](CCCN)C(=O)N1CCC[C@H]1C(=O)N[C@H](CCC(C)C)C(=O)NC(Cc1c[nH]c2ccc(C)cc12)C(=O)N[C@@H](Cc1ccccc1)C(N)=O (stereo partly drawn) [Compound 285, Ac-Phe-Orn-Pro-hle-Egc-Phe-NH2] (Ac-F[Orn]P[d(hLeu)][ξTrp(5-Me)]F-NH2)"
3,0.05 to 0.2 µM,"CC(=O)N[C@@H](Cc1ccccc1)C(=O)N[C@@H](CCCN)C(=O)N1CCC[C@H]1C(=O)N[C@H](CCC(C)C)C(=O)N[C@@H](Cc1cccc(Cl)c1)C(=O)N[C@@H](Cc1ccc2ccccc2c1)C(N)=O [Compound 288, Ac-Phe-Orn-Pro-hle-Mcf-2Ni—NH2] (Ac-F[Orn]P[d(hLeu)][Phe(3-Cl)][2Nal]-NH2)"
4,0.02 to 0.05 µM,"CC(=O)N[C@@H](Cc1ccccc1)C(=O)N[C@@H](CCCN)C(=O)N1CCC[C@H]1C(=O)N[C@H](CCC(C)C)C(=O)N[C@@H](Cc1cccc(Cl)c1)C(=O)N[C@@H](CC1CCCCC1)C(N)=O [Compound 289, Ac-Phe-Orn-Pro-hle-Mcf-Cha-NH2] (Ac-F[Orn]P[d(hLeu)][Phe(3-Cl)][Cha]-NH2)"
5,0.05 to 0.2 µM,"CC(=O)N[C@@H](Cc1ccccc1)C(=O)N[C@@H](CCCN)C(=O)N1CCC[C@H]1C(=O)N[C@H](CCC(C)C)C(=O)N[C@@H](Cc1cccc(Cl)c1)C(=O)N[C@@H](Cc1ccc(F)cc1)C(N)=O [Compound 290, Ac-Phe-Orn-Pro-hle-Mcf-Pff-NH2] (Ac-F[Orn]P[d(hLeu)][Phe(3-Cl)][Phe(4-F)]-NH2)"
6,0.05 to 0.2 µM,"CC(=O)N[C@@H](Cc1ccccc1)C(=O)N[C@@H](CCCN)C(=O)N1CCC[C@H]1C(=O)N[C@H](CCC(C)C)C(=O)N[C@@H](Cc1ccc(F)cc1)C(=O)N[C@@H](Cc1ccc2ccccc2c1)C(N)=O [Compound 297, Ac-Phe-Orn-Pro-hle-Pff-2Ni—NH2] (Ac-F[Orn]P[d(hLeu)][Phe(4-F)][2Nal]-NH2)"
7,0.05 to 0.2 µM,"CC(=O)N[C@@H](Cc1ccccc1)C(=O)N[C@@H](CCCN)C(=O)N1CCC[C@H]1C(=O)N[C@H](CCC(C)C)C(=O)N[C@@H](Cc1ccc(F)cc1)C(=O)N[C@@H](CC1CCCCC1)C(N)=O [Compound 298, Ac-Phe-Orn-Pro-hle-Pff-Cha-NH2] (Ac-F[Orn]P[d(hLeu)][Phe(4-F)][Cha]-NH2)"
8,0.05 to 0.2 µM,"CC(=O)N[C@@H](Cc1ccccc1)C(=O)N[C@@H](CCCN)C(=O)N1CCC[C@H]1C(=O)N[C@H](CCC(C)C)C(=O)N[C@@H](Cc1ccc(F)cc1)C(=O)N[C@@H](Cc1ccc(Cl)c(Cl)c1)C(N)=O [Compound 299, Ac-Phe-Orn-Pro-hle-Pff-Eaa-NH2] (Ac-F[Orn]P[d(hLeu)][Phe(4-F)][Phe(3,4-Cl2)]-NH2)"
9,0.05 to 0.2 µM,"COc1cccc(C[C@H](NC(=O)[C@H](Cc2ccc(F)cc2)NC(=O)[C@@H](CCC(C)C)NC(=O)[C@@H]2CCCN2C(=O)[C@H](CCCN)NC(=O)[C@H](Cc2ccccc2)NC(C)=O)C(N)=O)c1 [Compound 300, Ac-Phe-Orn-Pro-hle-Pff-Mmy-NH2] (Ac-F[Orn]P[d(hLeu)][Phe(4-F)][Phe(3-OMe)]-NH2)"
10,0.05 to 0.2 µM,"CC(=O)N[C@@H](Cc1ccccc1)C(=O)N[C@@H](CCCN)C(=O)N1CCC[C@H]1C(=O)N[C@H](CCC(C)C)C(=O)N[C@@H](Cc1ccc(F)cc1)C(=O)N[C@@H](Cc1ccc(F)cc1)C(N)=O [Compound 301, Ac-Phe-Orn-Pro-hle-Pff-Pff-NH2] (Ac-F[Orn]P[d(hLeu)][Phe(4-F)][Phe(4-F)]-NH2)"
11,0.05 to 0.2 µM,"CC(=O)N[C@@H](Cc1ccccc1)C(=O)N[C@@H](CCCN)C(=O)N1CCC[C@H]1C(=O)N[C@H](CCC(C)C)C(=O)N[C@@H](Cc1ccccc1)C(=O)N[C@@H](Cc1ccccc1)C(N)=O [Compound 304, Ac-Phe-Orn-Pro-hle-Phe-Phe-NH2] (Ac-F[Orn]P[d(hLeu)]FF-NH2)"
12,0.05 to 0.2 µM,"CC(=O)N[C@@H](Cc1ccccc1)C(=O)N[C@@H](CCCN)C(=O)N1CCC[C@H]1C(=O)N[C@H](CCC(C)C)C(=O)N[C@@H](Cc1c[nH]c2ccccc12)C(=O)N[C@@H](Cc1ccccc1)C(N)=O [Compound 306, Ac-Phe-Orn-Pro-hle-Trp-Phe-NH2] (Ac-F[Orn]P[d(hLeu)]WF-NH2)"
13,0.005 to 0.01 µM,"CC[C@@H](C)[C@@H](NC(=O)[C@@H]1CCCN1C(=O)[C@H](CCCN)NC(=O)[C@H](Cc1ccccc1)NC(C)=O)C(=O)N[C@@H](Cc1c[nH]c2ccccc12)C(=O)N[C@@H](Cc1ccccc1)C(N)=O [Compound 307, Ac-Phe-Orn-Pro-ile-Trp-Phe-NH2] (Ac-F[Orn]P[dI]WF-NH2)"

row,Compound,IC50
1,"CC(=O)N[C@@H](Cc1ccccc1)C(=O)N[C@@H](CCCN)C(=O)N1CCC[C@H]1C(=O)N[C@H](CCC(C)C)C(=O)N[C@@H](Cc1csc2ccccc12)C(=O)N[C@H](Cc1ccccc1)C(=O)O [Compound 281, Ac-Phe-Orn-Pro-hle-Bta-phe-OH] (Ac-F[Orn]P[d(hLeu)][Bta][dF]-OH)",0.05 to 0.2 µM
2,"CC(=O)N[C@@H](Cc1ccccc1)C(=O)N[C@@H](CCCN)C(=O)N1CCC[C@H]1C(=O)N[C@H](CCC(C)C)C(=O)N[C@@H](Cc1ccc(F)c(F)c1)C(=O)N[C@@H](Cc1ccccc1)C(N)=O [Compound 283, Ac-Phe-Orn-Pro-hle-Dff-Phe-NH2] (Ac-F[Orn]P[d(hLeu)][Phe(3,4-F2)]F-NH2)",0.05 to 0.2 µM
3,"CC(=O)N[C@@H](Cc1ccccc1)C(=O)N[C@@H](CCCN)C(=O)N1CCC[C@H]1C(=O)N[C@H](CCC(C)C)C(=O)N[C@@H](Cc1ccc(Cl)c(Cl)c1)C(=O)N[C@@H](Cc1ccccc1)C(N)=O [Compound 284, Ac-Phe-Orn-Pro-hle-Eaa-Phe-NH2] (Ac-F[Orn]P[d(hLeu)][Phe(3,4-Cl2)]F-NH2)",0.05 to 0.2 µM
4,"CC(=O)N[C@@H](Cc1ccccc1)C(=O)N[C@@H](CCCN)C(=O)N1CCC[C@H]1C(=O)N[C@H](CCC(C)C)C(=O)N[C@@H](Cc1ccc(Cl)cc1Cl)C(=O)N[C@@H](Cc1ccccc1)C(N)=O [Compound 286, Ac-Phe-Orn-Pro-hle-Egy-Phe-NH2] (Ac-F[Orn]P[d(hLeu)][Phe(2,4-Cl2)]F-NH2)",0.05 to 0.2 µM
5,"CC(=O)N[C@@H](Cc1ccccc1)C(=O)N[C@@H](CCCN)C(=O)N1CCC[C@H]1C(=O)N[C@H](CCC(C)C)C(=O)N[C@@H](Cc1cccc([N+](=O)[O-])c1)C(=O)N[C@@H](Cc1ccccc1)C(N)=O [Compound 287, Ac-Phe-Orn-Pro-hle-Egz-Phe-NH2] (Ac-F[Orn]P[d(hLeu)][Phe(3-NO2)]F-NH2)",0.05 to 0.2 µM
6,"CC(=O)N[C@@H](Cc1ccccc1)C(=O)N[C@@H](CCCN)C(=O)N1CCC[C@H]1C(=O)N[C@H](CCC(C)C)C(=O)N[C@@H](Cc1cccc(F)c1)C(=O)N[C@@H](Cc1ccccc1)C(N)=O [Compound 292, Ac-Phe-Orn-Pro-hle-Mff-Phe-NH2] (Ac-F[Orn]P[d(hLeu)][Phe(3-F)]F-NH2)",0.05 to 0.2 µM
7,"COc1cccc(C[C@H](NC(=O)[C@@H](CCC(C)C)NC(=O)[C@@H]2CCCN2C(=O)[C@H](CCCN)NC(=O)[C@H](Cc2ccccc2)NC(C)=O)C(=O)N[C@@H](Cc2ccccc2)C(N)=O)c1 [Compound 293, Ac-Phe-Orn-Pro-hle-Mmy-Phe-NH2] (Ac-F[Orn]P[d(hLeu)][Phe(3-OMe)]F-NH2)",0.05 to 0.2 µM
8,"CC(=O)N[C@@H](Cc1ccccc1)C(=O)N[C@@H](CCCN)C(=O)N1CCC[C@H]1C(=O)N[C@H](CCC(C)C)C(=O)N[C@@H](Cc1ccccc1Cl)C(=O)N[C@@H](Cc1ccccc1)C(N)=O [Compound 294, Ac-Phe-Orn-Pro-hle-Ocf-Phe-NH2] (Ac-F[Orn]P[d(hLeu)][Phe(2-Cl)]F-NH2)",0.05 to 0.2 µM
9,"CC(=O)N[C@@H](Cc1ccccc1)C(=O)N[C@@H](CCCN)C(=O)N1CCC[C@H]1C(=O)N[C@H](CCC(C)C)C(=O)N[C@@H](Cc1ccccc1F)C(=O)N[C@@H](Cc1ccccc1)C(N)=O [Compound 295, Ac-Phe-Orn-Pro-hle-Off-Phe-NH2] (Ac-F[Orn]P[d(hLeu)][Phe(2-F)]F-NH2)",0.05 to 0.2 µM
10,"CC(=O)N[C@@H](Cc1ccccc1)C(=O)N[C@@H](CCCN)C(=O)N1CCC[C@H]1C(=O)N[C@H](CCC(C)C)C(=O)N[C@@H](Cc1ccccc1C(F)(F)F)C(=O)N[C@@H](Cc1ccccc1)C(N)=O [Compound 296, Ac-Phe-Orn-Pro-hle-Otf-Phe-NH2] (Ac-F[Orn]P[d(hLeu)][Phe(2-CF3)]F-NH2)",0.05 to 0.2 µM
11,"CC(=O)N[C@@H](Cc1ccccc1)C(=O)N[C@@H](CCCN)C(=O)N1CCC[C@H]1C(=O)N[C@H](CCC(C)C)C(=O)N[C@@H](Cc1cc(F)c(F)c(F)c1)C(=O)N[C@@H](Cc1ccccc1)C(N)=O [Compound 305, Ac-Phe-Orn-Pro-hle-Tff-Phe-NH2] (Ac-F[Orn]P[d(hLeu)][Phe(3,4,5-F3)]F-NH2)",0.05 to 0.2 µM
